Measurements published in US20260224588A1, “BENZODIAZEPINONE-DERIVED INHIBITORS OF EGFR AND HER2” (The Research Foundation for the State University of New York, priority 2023, published 2026).

Columns and labels:
Assay in all cases: KINOMEscan
Format in all cases: binding
[1] = target: T1, ABL1(M351T)-phosphorylated (Homo sapiens, UniProt P00519, M351T); conditions: 1 μM of compound 4; read-out: POC
T1 construct: purchased Eurofins DiscoverX Corporation

[2] = target: T2, ABL1(Y253F)-phosphorylated (Homo sapiens, UniProt P00519, Y253F); conditions: 1 μM of compound 4; read-out: POC
T2 construct: purchased Eurofins DiscoverX Corporation

ACVR1B = target: T3, ACVR1B (Homo sapiens, UniProt P36896); conditions: 1 μM of compound 4; read-out: POC
T3 construct: purchased Eurofins DiscoverX Corporation

CAMK4 = CAMK4 (Homo sapiens, UniProt Q16566); conditions: 1 μM of compound 4; read-out: POC
CLK2 = CLK2 (Homo sapiens, UniProt P49760); conditions: 1 μM of compound 4; read-out: POC
CSF1R = CSF1R (Homo sapiens, UniProt P07333); conditions: 1 μM of compound 4; read-out: POC
CSNK1A1L = CSNK1A1L (Homo sapiens, UniProt Q8N752); conditions: 1 μM of compound 4; read-out: POC
CSNK2A1 = CSNK2A1 (Homo sapiens, UniProt P68400); conditions: 1 μM of compound 4; read-out: POC
DCAMKL3 = DCAMKL3 (Homo sapiens, UniProt Q9C098); conditions: 1 μM of compound 4; read-out: POC
EGFR(T790M) = target: T4, EGFR(T790M) (Homo sapiens, UniProt P00533, T790M); conditions: 1 μM of compound 4; read-out: POC
T4 construct: purchased Eurofins DiscoverX (KINOMEscan service)

ERK5 = target: T5, ERK5 (Homo sapiens, UniProt Q13164); conditions: 1 μM of compound 4; read-out: POC
T5 construct: purchased Eurofins DiscoverX Corporation

FLT1 = target: T6, FLT1 (Homo sapiens, UniProt P17948); conditions: 1 μM of compound 4; read-out: POC
T6 construct: purchased Eurofins DiscoverX Corporation

FLT3(D835Y) = target: T7, FLT3(D835Y) (Homo sapiens, UniProt P36888, D835Y); conditions: 1 μM of compound 4; read-out: POC
T7 construct: purchased Eurofins DiscoverX Corporation

FLT3(ITD + F691L) = conditions: 1 μM of compound 4
GRK7 = target: T8, GRK7 (Homo sapiens, UniProt Q8WTQ7); conditions: 1 μM of compound 4; read-out: POC
T8 construct: purchased Eurofins DiscoverX Corporation

HIPK4 = target: T9, HIPK4 (Homo sapiens, UniProt Q8NE63); conditions: 1 μM of compound 4; read-out: POC
T9 construct: purchased Eurofins DiscoverX Corporation

HPK1 = target: T10, HPK1 (Homo sapiens, UniProt Q92918); conditions: 1 μM of compound 4; read-out: POC
T10 construct: purchased Eurofins DiscoverX Corporation

IKK-alpha = IKK-alpha (Homo sapiens, UniProt O15111); conditions: 1 μM of compound 4; read-out: POC
[3] = target: JAK1(JH1domain-catalytic) (Homo sapiens, UniProt P23458); conditions: 1 μM of compound 4; read-out: POC
JNK2 = JNK2 (Homo sapiens, UniProt P45984); conditions: 1 μM of compound 4; read-out: POC
MAP3K3 = MAP3K3 (Homo sapiens, UniProt Q99759); conditions: 1 μM of compound 4; read-out: POC
MET(Y1235D) = MET(Y1235D) (Homo sapiens, UniProt P08581, Y1235D); conditions: 1 μM of compound 4; read-out: POC
MST1 = MST1 (Homo sapiens, UniProt Q13043); conditions: 1 μM of compound 4; read-out: POC
MST2 = MST2 (Homo sapiens, UniProt Q13188); conditions: 1 μM of compound 4; read-out: POC
NDR2 = NDR2 (Homo sapiens, UniProt Q9Y2H1); conditions: 1 μM of compound 4; read-out: POC
NEK6 = NEK6 (Homo sapiens, UniProt Q9HC98); conditions: 1 μM of compound 4; read-out: POC
PFTK1 = PFTK1 (Homo sapiens, UniProt O94921); conditions: 1 μM of compound 4; read-out: POC
PIK3CA(Q546K) = PIK3CA(Q546K) (Homo sapiens, UniProt P42336, Q546K); conditions: 1 μM of compound 4; read-out: POC
PRKD1 = PRKD1 (Homo sapiens, UniProt Q15139); conditions: 1 μM of compound 4; read-out: POC
PRKX = PRKX (Homo sapiens, UniProt P51817); conditions: 1 μM of compound 4; read-out: POC
RIPK5 = target: T11, RIPK5 (Homo sapiens, UniProt Q6XUX3); conditions: 1 μM of compound 4; read-out: POC
T11 construct: purchased Eurofins DiscoverX Corporation (KINOMEscan screening service)

ROS1 = target: T12, ROS1 (Homo sapiens, UniProt P08922); conditions: 1 μM of compound 4; read-out: POC
T12 construct: purchased Eurofins DiscoverX Corporation (KINOMEscan screening service)

[4] = target: T13, RSK1(Kin.Dom.1-N-terminal) (Homo sapiens, UniProt Q15418); conditions: 1 μM of compound 4; read-out: POC
T13 construct: RSK1(Kin.Dom.1-N-terminal); purchased Eurofins DiscoverX Corporation (KINOMEscan screening service)

SgK110 = target: T14, SgK110 (Homo sapiens, UniProt P0C264); conditions: 1 μM of compound 4; read-out: POC
T14 construct: purchased Eurofins DiscoverX (KINOMEscan service)

SLK = target: T15, SLK (Homo sapiens, UniProt Q9H2G2); conditions: 1 μM of compound 4; read-out: POC
T15 construct: purchased Eurofins DiscoverX (KINOMEscan service)

TEC = target: T16, TEC (Homo sapiens, UniProt P42680); conditions: 1 μM of compound 4; read-out: POC
T16 construct: purchased Eurofins DiscoverX Corporation

TTK = target: T17, TTK (Homo sapiens, UniProt P33981); conditions: 1 μM of compound 4; read-out: POC
T17 construct: purchased Eurofins DiscoverX Corporation

VEGFR2 = target: T18, VEGFR2 (Homo sapiens, UniProt P35968); conditions: 1 μM of compound 4; read-out: POC
T18 construct: purchased Eurofins DiscoverX

WEE2 = target: T19, WEE2 (Homo sapiens, UniProt P0C1S8); conditions: 1 μM of compound 4; read-out: POC
T19 construct: purchased Eurofins DiscoverX

IKK-alpha, sequence (O15111 whole entry): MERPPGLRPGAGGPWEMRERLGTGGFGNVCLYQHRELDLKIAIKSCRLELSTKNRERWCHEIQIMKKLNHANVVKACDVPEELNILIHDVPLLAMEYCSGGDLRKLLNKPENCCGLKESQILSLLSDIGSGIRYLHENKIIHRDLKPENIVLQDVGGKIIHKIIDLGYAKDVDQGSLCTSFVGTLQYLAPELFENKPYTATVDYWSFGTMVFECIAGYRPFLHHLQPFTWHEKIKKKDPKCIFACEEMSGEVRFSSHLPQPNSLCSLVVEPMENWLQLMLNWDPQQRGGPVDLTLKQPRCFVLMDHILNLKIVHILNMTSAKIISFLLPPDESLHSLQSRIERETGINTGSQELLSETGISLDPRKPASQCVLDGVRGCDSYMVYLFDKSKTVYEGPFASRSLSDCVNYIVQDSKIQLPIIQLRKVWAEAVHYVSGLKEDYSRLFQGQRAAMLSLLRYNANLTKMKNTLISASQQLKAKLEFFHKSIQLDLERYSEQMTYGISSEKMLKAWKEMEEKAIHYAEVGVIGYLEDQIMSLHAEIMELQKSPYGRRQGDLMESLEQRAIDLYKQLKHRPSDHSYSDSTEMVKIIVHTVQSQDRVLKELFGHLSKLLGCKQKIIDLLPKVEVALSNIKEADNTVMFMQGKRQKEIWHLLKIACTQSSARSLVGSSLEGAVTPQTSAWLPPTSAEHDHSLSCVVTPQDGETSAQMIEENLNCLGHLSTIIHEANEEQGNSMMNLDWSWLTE
MST1, sequence (Q13043 whole entry): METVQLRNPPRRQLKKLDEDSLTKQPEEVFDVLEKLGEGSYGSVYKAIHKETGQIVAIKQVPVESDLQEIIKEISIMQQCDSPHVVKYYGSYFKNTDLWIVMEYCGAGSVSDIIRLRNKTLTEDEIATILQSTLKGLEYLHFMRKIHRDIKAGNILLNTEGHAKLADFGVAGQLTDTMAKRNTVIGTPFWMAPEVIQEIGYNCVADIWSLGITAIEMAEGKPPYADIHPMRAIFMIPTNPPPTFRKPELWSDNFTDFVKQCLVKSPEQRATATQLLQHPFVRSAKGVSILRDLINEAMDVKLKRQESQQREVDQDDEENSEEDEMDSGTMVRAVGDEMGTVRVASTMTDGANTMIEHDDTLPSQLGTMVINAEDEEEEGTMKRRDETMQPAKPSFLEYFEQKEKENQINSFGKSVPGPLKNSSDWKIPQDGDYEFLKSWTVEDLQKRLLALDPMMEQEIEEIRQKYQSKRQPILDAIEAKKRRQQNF
T15 sequence (Q9H2G2 whole entry): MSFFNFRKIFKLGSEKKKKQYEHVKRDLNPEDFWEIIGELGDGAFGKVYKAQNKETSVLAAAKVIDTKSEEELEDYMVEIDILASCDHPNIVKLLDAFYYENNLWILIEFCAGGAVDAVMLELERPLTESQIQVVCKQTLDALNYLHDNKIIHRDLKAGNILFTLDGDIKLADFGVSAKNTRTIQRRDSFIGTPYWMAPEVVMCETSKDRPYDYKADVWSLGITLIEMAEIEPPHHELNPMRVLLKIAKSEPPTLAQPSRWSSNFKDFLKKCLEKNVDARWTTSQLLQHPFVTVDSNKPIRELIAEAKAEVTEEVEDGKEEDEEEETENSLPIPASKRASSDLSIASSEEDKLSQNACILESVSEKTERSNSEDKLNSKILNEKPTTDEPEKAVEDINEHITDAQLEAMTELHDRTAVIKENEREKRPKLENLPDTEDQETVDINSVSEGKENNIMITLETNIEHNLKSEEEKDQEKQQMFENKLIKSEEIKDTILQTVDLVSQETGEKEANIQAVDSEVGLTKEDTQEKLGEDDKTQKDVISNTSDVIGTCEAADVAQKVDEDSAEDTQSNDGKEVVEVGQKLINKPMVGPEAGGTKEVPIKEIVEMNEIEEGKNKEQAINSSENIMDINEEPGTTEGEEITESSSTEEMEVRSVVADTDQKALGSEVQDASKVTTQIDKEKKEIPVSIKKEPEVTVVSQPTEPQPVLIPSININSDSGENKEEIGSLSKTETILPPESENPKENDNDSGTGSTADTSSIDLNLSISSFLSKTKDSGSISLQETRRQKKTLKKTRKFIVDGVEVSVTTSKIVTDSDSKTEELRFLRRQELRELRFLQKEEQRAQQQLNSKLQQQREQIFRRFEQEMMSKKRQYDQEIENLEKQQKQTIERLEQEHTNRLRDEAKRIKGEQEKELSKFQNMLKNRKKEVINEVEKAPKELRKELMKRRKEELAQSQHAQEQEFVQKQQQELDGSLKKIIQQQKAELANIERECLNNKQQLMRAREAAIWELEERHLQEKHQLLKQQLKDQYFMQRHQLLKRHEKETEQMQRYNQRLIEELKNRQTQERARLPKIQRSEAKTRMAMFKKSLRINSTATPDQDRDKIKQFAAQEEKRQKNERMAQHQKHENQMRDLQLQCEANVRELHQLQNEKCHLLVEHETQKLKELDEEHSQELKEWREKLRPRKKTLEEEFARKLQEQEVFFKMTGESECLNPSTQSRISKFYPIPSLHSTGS
PFTK1, sequence (O94921 whole entry): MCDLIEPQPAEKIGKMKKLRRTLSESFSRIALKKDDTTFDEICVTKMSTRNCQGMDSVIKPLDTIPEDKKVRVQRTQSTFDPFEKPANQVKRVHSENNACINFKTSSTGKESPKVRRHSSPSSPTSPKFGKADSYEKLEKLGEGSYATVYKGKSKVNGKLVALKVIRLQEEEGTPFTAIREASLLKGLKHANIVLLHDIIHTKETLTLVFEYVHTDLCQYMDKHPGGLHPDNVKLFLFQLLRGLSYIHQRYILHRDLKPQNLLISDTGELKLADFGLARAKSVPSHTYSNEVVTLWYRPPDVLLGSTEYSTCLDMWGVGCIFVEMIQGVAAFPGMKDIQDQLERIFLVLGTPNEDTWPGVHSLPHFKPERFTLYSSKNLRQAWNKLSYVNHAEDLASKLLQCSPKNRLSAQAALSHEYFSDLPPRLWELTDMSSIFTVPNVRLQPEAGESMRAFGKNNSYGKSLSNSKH
MST2, sequence (Q13188 whole entry): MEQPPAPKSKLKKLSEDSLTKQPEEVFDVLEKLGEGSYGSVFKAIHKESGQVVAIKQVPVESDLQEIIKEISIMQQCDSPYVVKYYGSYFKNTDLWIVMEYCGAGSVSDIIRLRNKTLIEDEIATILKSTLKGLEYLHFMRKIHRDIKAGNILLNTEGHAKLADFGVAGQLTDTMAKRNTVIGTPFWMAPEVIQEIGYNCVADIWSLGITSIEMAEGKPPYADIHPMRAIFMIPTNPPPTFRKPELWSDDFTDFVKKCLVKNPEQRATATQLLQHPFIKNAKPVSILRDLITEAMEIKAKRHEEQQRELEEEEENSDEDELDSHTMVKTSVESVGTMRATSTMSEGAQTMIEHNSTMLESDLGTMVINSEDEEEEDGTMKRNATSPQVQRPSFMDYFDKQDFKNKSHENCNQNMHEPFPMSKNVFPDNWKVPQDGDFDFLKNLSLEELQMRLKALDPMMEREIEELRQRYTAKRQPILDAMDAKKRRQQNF
CSNK2A1, sequence (P68400 whole entry): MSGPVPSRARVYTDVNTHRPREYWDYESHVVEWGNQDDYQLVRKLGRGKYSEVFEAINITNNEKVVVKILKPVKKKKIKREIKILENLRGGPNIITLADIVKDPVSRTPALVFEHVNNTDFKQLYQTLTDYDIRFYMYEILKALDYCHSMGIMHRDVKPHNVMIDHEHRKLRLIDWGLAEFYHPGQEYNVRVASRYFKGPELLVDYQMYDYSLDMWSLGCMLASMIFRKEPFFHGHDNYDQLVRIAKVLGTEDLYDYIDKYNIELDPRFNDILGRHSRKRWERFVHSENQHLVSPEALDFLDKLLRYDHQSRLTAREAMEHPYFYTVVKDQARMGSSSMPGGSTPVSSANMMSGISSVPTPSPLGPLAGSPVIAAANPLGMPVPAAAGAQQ
PIK3CA(Q546K), sequence (P42336 whole entry Q546K): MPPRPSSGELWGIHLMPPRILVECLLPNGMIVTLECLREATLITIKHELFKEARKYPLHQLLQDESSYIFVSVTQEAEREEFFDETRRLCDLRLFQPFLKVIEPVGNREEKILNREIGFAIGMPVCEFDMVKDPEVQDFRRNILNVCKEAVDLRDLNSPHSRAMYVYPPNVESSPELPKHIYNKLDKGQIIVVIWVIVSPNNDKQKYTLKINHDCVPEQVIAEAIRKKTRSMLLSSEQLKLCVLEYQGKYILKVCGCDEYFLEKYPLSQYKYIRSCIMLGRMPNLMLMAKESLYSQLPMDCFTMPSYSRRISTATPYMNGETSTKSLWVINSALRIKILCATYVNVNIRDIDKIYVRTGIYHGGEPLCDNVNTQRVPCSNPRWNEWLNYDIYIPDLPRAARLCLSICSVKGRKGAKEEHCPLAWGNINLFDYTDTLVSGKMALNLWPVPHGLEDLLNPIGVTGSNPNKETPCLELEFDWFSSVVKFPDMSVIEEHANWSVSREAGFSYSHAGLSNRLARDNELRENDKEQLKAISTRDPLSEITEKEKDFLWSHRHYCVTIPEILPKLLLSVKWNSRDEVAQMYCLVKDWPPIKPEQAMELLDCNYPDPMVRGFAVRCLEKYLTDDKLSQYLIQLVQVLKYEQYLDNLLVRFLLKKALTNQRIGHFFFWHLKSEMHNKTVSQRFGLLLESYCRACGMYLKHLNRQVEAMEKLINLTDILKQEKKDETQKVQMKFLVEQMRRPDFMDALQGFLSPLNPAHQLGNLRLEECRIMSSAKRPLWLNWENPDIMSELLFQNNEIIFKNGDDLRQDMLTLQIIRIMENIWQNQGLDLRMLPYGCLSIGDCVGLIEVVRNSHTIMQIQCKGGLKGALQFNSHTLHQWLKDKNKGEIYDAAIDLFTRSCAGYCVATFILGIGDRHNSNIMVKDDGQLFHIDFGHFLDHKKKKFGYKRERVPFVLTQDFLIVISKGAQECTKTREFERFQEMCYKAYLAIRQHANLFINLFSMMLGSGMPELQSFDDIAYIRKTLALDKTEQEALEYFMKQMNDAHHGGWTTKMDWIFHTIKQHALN

Q: Which results are given for `C=CC(=O)Nc1ccc(OC)c(Nc2cc(-c3[nH]c(CC)nc3-c3cccc(NC(=O)c4cccc5c4NC(=O)c4ccccc4N5)c3)ccn2)c1` [Compound 4, N-(3-(5-(2-((5-Acrylamido-2-methoxyphenyl)amino)pyridin-4-yl)-2-ethyl-1H-imidazol-4-yl)phenyl)-11-oxo-10,11-dihydro-5H-dibenzo[b,e][1,4]diazepine-9-carboxamide]?
A: remaining binding at 1 µM [1]: 67%; remaining binding at 1 µM [2]: 72%; remaining binding at 1 µM (ACVR1B): 85%; remaining binding at 1 µM (CAMK4): 99%; remaining binding at 1 µM (CLK2): 63%; remaining binding at 1 µM (CSF1R): 100%; remaining binding at 1 µM (CSNK1A1L): 91%; remaining binding at 1 µM (CSNK2A1): 100%; remaining binding at 1 µM (DCAMKL3): 86%; remaining binding at 1 µM (EGFR(T790M)): 12%; remaining binding at 1 µM (ERK5): 100%; remaining binding at 1 µM (FLT1): 100%; remaining binding at 1 µM (FLT3(D835Y)): 96%; POC (FLT3(ITD + F691L)): 79; remaining binding at 1 µM (GRK7): 99%; remaining binding at 1 µM (HIPK4): 92%; remaining binding at 1 µM (HPK1): 45%; remaining binding at 1 µM (IKK-alpha): 100%; remaining binding at 1 µM [3]: 91%; remaining binding at 1 µM (JNK2): 78%; remaining binding at 1 µM (MAP3K3): 51%; remaining binding at 1 µM (MET(Y1235D)): 97%; remaining binding at 1 µM (MST1): 6%; remaining binding at 1 µM (MST2): 14%; remaining binding at 1 µM (NDR2): 77%; remaining binding at 1 µM (NEK6): 100%; remaining binding at 1 µM (PFTK1): 90%; remaining binding at 1 µM (PIK3CA(Q546K)): 100%; remaining binding at 1 µM (PRKD1): 42%; remaining binding at 1 µM (PRKX): 100%; remaining binding at 1 µM (RIPK5): 79%; remaining binding at 1 µM (ROS1): 80%; remaining binding at 1 µM [4]: 4.7%; remaining binding at 1 µM (SgK110): 100%; remaining binding at 1 µM (SLK): 100%; remaining binding at 1 µM (TEC): 45%; remaining binding at 1 µM (TTK): 72%; remaining binding at 1 µM (VEGFR2): 100%; remaining binding at 1 µM (WEE2): 98%
